This is an account of results in PubChem BioAssay AID2060625 (Molecular Pharmacology Branch, DTP, NCI, 2025).

Values joined by “and” are separate entries in the source; they are usually repeats but may differ in a detail not shown here. Equal values may be shown once.

The test deals with 186277-243-T-J2-PDC spheroids with HUVEC/MSC, viability. The test is described as follows: Anticancer human tumor 186277-243-T-J2-PDC patient-derived colon adenocarcinoma cell line growth inhibition [CLK]. As to conditions: for viability, T/C: stronger effect = lower value. An outline of the steps:
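Multi-cell-type spheroids combined patient-derived tumor cells with HUVEC endothelial cells and human mesenchymal stem cells. Paired agents were dosed in half-log steps down from about clinical Cmax, or from 10 microM where Cmax was unknown.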

Where [1] appears, read: curve of first compound, second compound 0.0316 µM.
Setting [2] is: curve of first compound, second compound 0.1 µM.
The mark [3] stands for this setting: curve of first compound, second compound 0.316 µM.
[4] abbreviates: curve of first compound, second compound 1 µM.
Setting [5] is: curve of first compound, second compound 3.16 µM.
[6] abbreviates: curve of first compound, second compound 10 µM.
The mark [7] stands for this setting: second compound 0.0316 µM, first compound 0.0316 µM.
[8] abbreviates: second compound 0.0316 µM, first compound 0.1 µM.
Where [9] appears, read: second compound 0.0316 µM, first compound 0.316 µM.
The mark [10] stands for this setting: second compound 0.0316 µM, first compound 1 µM.
Where [11] appears, read: second compound 0.0316 µM, first compound 3.16 µM.
Setting [12] is: second compound 0.0316 µM, first compound 10 µM.
Setting [13] is: second compound 0.1 µM, first compound 0.0316 µM.
Where [14] appears, read: second compound 0.1 µM, first compound 0.1 µM.
Setting [15] is: second compound 0.1 µM, first compound 0.316 µM.
Where [16] appears, read: second compound 0.1 µM, first compound 1 µM.
[17] abbreviates: second compound 0.1 µM, first compound 3.16 µM.
The mark [18] stands for this setting: second compound 0.1 µM, first compound 10 µM.
[19] abbreviates: second compound 0.316 µM, first compound 0.0316 µM.
Setting [20] is: second compound 0.316 µM, first compound 0.1 µM.
Setting [21] is: second compound 0.316 µM, first compound 0.316 µM.
[22] abbreviates: second compound 0.316 µM, first compound 1 µM.
The mark [23] stands for this setting: second compound 0.316 µM, first compound 3.16 µM.
[24] abbreviates: second compound 0.316 µM, first compound 10 µM.
Where [25] appears, read: second compound 1 µM, first compound 0.0316 µM.
[26] abbreviates: second compound 1 µM, first compound 0.1 µM.
Where [27] appears, read: second compound 1 µM, first compound 0.316 µM.
Where [28] appears, read: second compound 1 µM, first compound 1 µM.
Setting [29] is: second compound 1 µM, first compound 3.16 µM.
Setting [30] is: second compound 1 µM, first compound 10 µM.
Where [31] appears, read: second compound 3.16 µM, first compound 0.0316 µM.
The mark [32] stands for this setting: second compound 3.16 µM, first compound 0.1 µM.
The mark [33] stands for this setting: second compound 3.16 µM, first compound 0.316 µM.
Setting [34] is: second compound 3.16 µM, first compound 1 µM.
[35] abbreviates: second compound 3.16 µM, first compound 3.16 µM.
The mark [36] stands for this setting: second compound 3.16 µM, first compound 10 µM.
[37] abbreviates: second compound 10 µM, first compound 0.0316 µM.
The mark [38] stands for this setting: second compound 10 µM, first compound 0.1 µM.
Where [39] appears, read: second compound 10 µM, first compound 0.316 µM.
Setting [40] is: second compound 10 µM, first compound 1 µM.
Where [41] appears, read: second compound 10 µM, first compound 3.16 µM.
[42] abbreviates: second compound 10 µM, first compound 10 µM.
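Note: compound exposure lasted seven days before readout.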
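Throughout, for viability, T/C: 100% = DMSO vehicle control wells.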

On to `CC(Nc1ccc2c(c1)OCCn1cc(N3C(=O)OCC3C(F)F)nc1-2)C(N)=O` (stereo not given), for which the viability, T/C is 96.2% (compound 0.0316 µM); 103% and 104% (compound 0.1 µM); 80% and 80.6% (compound 0.316 µM); 65.2% and 58.1% (compound 1 µM); 58.7% and 53.7% (compound 3.16 µM); 49.9% and 37.6% (compound 10 µM). Where the note is “curve of compound”, the IC50 was > 10000 nM and 2380 nM.

Turning to `C=C(F)C(=O)N1CCN(c2nc(OCC3CCCN3C)nc3c2CCN(c2cccc4cccc(Cl)c24)C3)CC1CC#N` (stereo not given), the viability, T/C is, setting by setting: (compound 0.0316 µM) 79% and 94.1%; (compound 0.1 µM) 82.2% and 88.8%; (compound 0.316 µM) 93% and 82.2%; (compound 1 µM) 83.4% and 89.4%; (compound 3.16 µM) 101% and 109%. The IC50 (curve of compound) is 5270 nM and 7510 nM.

As for `CC(=O)O[C@H]1C(=O)[C@@]2(C)[C@H]([C@H](OC(=O)c3ccccc3)[C@]3(O)C[C@H](OC(=O)[C@H](O)[C@@H](NC(=O)c4ccccc4)c4ccccc4)C(C)=C1C3(C)C)[C@]1(OC(C)=O)CO[C@@H]1C[C@@H]2O`, the viability, T/C is, setting by setting: (compound 0.0316 µM) 25.2% and 16.5%; (compound 0.1 µM) 12.1% and 8.36%; (compound 0.316 µM) 11.6% and 7.98%; (compound 1 µM) 10.8% and 6.74%; (compound 3.16 µM) 8.76% and 8.77%; (compound 10 µM) 10.4% and 7.1%. In addition, the IC50 (curve of compound) is less than 31.6 nM.

For the molecule `O=c1[nH]cc(F)c(=O)[nH]1` + CNC(=O)c1ccc(Nc2nc(OC3CCCC3)c3c(-c4ccc5nc(C)oc5c4)c[nH]c3n2)c(OC)c1, the IC50 is, setting by setting: under setting [1], more than 10000 nM; under setting [2], 5330 nM; under setting [3], less than 31.6 nM; under setting [4], less than 31.6 nM; under setting [5], less than 31.6 nM; under setting [6], less than 31.6 nM. In addition, the viability, T/C runs as follows: under setting [7], 97.9%; under setting [8], 95.6%; under setting [9], 109%; under setting [10], 102%; under setting [11], 86.2%; under setting [12], 56.8%. Moreover, the viability, T/C was 70.6% under setting [13]; 66.2% under setting [14]; 64.2% under setting [15]; 61.5% under setting [16]; 58.1% under setting [17]; 42.1% under setting [18]. The viability, T/C reads like this: under setting [19], 43.7%; under setting [20], 43.6%; under setting [21], 39.4%; under setting [22], 41%; under setting [23], 37.3%; under setting [24], 25.6%. Moreover, the viability, T/C by setting is: under setting [25], 30.9%; under setting [26], 29.4%; under setting [27], 28.1%; under setting [28], 28.6%; under setting [29], 24.9%; under setting [30], 15%. The viability, T/C is, setting by setting: under setting [31], 27.6%; under setting [32], 26.9%; under setting [33], 24.8%; under setting [34], 28.3%; under setting [35], 24.4%; under setting [36], 12.1%. The viability, T/C runs as follows: under setting [37], 30.1%; under setting [38], 30.3%; under setting [39], 29.4%; under setting [40], 29.2%; under setting [41], 27.6%; under setting [42], 12%.

`C=C(F)C(=O)N1CCN(c2nc(OCC3CCCN3C)nc3c2CCN(c2cccc4cccc(Cl)c24)C3)CC1CC#N` (stereo not given) + CN1CCN(c2cc(C(=O)Nc3cc4cc(-c5cnn(C)c5)ccc4cn3)ccn2)CC1: the IC50 was 6630 nM under setting [1]; 5050 nM under setting [2]; less than 31.6 nM under setting [3]; less than 31.6 nM under setting [4]; less than 31.6 nM under setting [5]; less than 31.6 nM under setting [6]. Further, the viability, T/C under setting [7] is 84.2%; the viability, T/C under setting [8] was 78.5%; the viability, T/C under setting [9] is 115%; the viability, T/C under setting [10] is 90.6%; the viability, T/C under setting [11] was 106%; the viability, T/C under setting [12] was 24.9%. In addition, the viability, T/C under setting [13] is 82.7%; the viability, T/C under setting [14] was 76.7%; the viability, T/C under setting [15] is 81.4%; the viability, T/C under setting [16] is 95.8%; the viability, T/C under setting [17] was 83.5%; the viability, T/C under setting [18] was 1.11%. The viability, T/C is 25.1% under setting [19]; 27.1% under setting [20]; 30% under setting [21]; 35% under setting [22]; 32% under setting [23]; 1.64% under setting [24]. Also, the viability, T/C is, setting by setting: under setting [25], 1.65%; under setting [26], 0.34%; under setting [27], 1.16%; under setting [28], 0.32%; under setting [29], 0.22%; under setting [30], 2.22%. In addition, the viability, T/C is, setting by setting: under setting [31], 1.31%; under setting [32], 1.53%; under setting [33], 1.42%; under setting [34], 1.35%; under setting [35], 1.01%; under setting [36], 1.05%. For the same molecule, the viability, T/C under setting [37] is 0.68%; the viability, T/C under setting [38] was 1%; the viability, T/C under setting [39] is 1.19%; the viability, T/C under setting [40] was 0.79%; the viability, T/C under setting [41] was 1.52%; the viability, T/C under setting [42] was 0.2%.

In the case of `CCN1CCN(Cc2ccc(Nc3ncc(F)c(-c4cc(F)c5nc(C)n(C(C)C)c5c4)n3)nc2)CC1`, the viability, T/C is, setting by setting: (compound 0.00316 µM) 81% and 102%; (compound 0.01 µM) 94.2% and 98.3%; (compound 0.0316 µM) 103% and 120%; (compound 0.1 µM) 121% and 116%; (compound 0.316 µM) 120% and 131%; (compound 1 µM) 117% and 107%. The IC50 (curve of compound) was more than 1000 nM.

Regarding `COC1C=CCC(C)C(C)S(=O)(=O)NC(=O)c2ccc3c(c2)N(CC2CCC21)CC1(CCCc2cc(Cl)ccc21)CO3` (stereo not given) + CNC(=O)c1ccc(Nc2nc(OC3CCCC3)c3c(-c4ccc5nc(C)oc5c4)c[nH]c3n2)c(OC)c1, the IC50 is, setting by setting: under setting [1], 3550 nM; under setting [2], 90.1 nM; under setting [3], less than 31.6 nM; under setting [4], less than 31.6 nM; under setting [5], less than 31.6 nM; under setting [6], less than 31.6 nM. The viability, T/C was 101% under setting [7]; 101% under setting [8]; 103% under setting [9]; 83% under setting [10]; 55.9% under setting [11]; 4.26% under setting [12]. In addition, the viability, T/C is, setting by setting: under setting [13], 64%; under setting [14], 50.2%; under setting [15], 29.8%; under setting [16], 19.8%; under setting [17], 9.64%; under setting [18], 3.08%. Further, the viability, T/C by setting is: under setting [19], 39.9%; under setting [20], 32%; under setting [21], 19.9%; under setting [22], 12.5%; under setting [23], 6.42%; under setting [24], 2.78%. Moreover, the viability, T/C under setting [25] was 30.1%; the viability, T/C under setting [26] was 23.2%; the viability, T/C under setting [27] is 14.7%; the viability, T/C under setting [28] is 10.7%; the viability, T/C under setting [29] was 5.35%; the viability, T/C under setting [30] is 4.55%. The viability, T/C was 31.5% under setting [31]; 27% under setting [32]; 17.6% under setting [33]; 10.1% under setting [34]; 6.79% under setting [35]; 2.91% under setting [36]. Also, the viability, T/C reads like this: under setting [37], 36.1%; under setting [38], 25.4%; under setting [39], 20.5%; under setting [40], 11.9%; under setting [41], 5.93%; under setting [42], 2.8%.

In the case of `C#Cc1c(F)ccc2cc(O)cc(-c3ncc4c(N5CC6CCC(C5)N6)nc(OCC56CCCN5CC(F)C6)nc4c3F)c12` (stereo not given), the viability, T/C was 95.5% and 101% (compound 0.0316 µM); 73.5% and 89.7% (compound 0.1 µM); 69.2% and 120% (compound 0.316 µM); 32% and 60% (compound 1 µM); 20.9% and 34.8% (compound 3.16 µM); 14.7% and 21.7% (compound 10 µM). The IC50 (curve of compound) is 538 nM and 1440 nM.

As usually defined, the viability, T/C is the result in the treated group divided by that in the control group, in per cent. The term IC50 denotes the point on the concentration scale where inhibition reaches its midpoint.
